The compounds below were run against TgCDPK1 (Toxoplasma gondii, UniProt Q9BJF5) (assay: biochemical).
TgCDPK1, sequence (Q9BJF5 1-507): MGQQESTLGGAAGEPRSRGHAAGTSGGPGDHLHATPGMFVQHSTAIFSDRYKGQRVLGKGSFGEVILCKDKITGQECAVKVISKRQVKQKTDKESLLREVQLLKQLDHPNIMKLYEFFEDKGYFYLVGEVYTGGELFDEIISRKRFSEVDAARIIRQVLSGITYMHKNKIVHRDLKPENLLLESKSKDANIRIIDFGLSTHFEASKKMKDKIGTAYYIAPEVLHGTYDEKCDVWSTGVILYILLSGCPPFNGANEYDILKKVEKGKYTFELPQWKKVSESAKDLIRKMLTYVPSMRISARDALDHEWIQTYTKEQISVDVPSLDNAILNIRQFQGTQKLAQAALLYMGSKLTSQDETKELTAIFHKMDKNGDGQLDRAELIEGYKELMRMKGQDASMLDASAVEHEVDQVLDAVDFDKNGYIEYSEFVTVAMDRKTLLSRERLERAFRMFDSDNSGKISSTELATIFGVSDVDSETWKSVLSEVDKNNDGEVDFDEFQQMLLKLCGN

Question: `CC(C)(CO)Cn1nc(-c2ccc3nc(OCC(F)(F)F)ccc3c2)c2c(N)ncnc21` [Example 2, 3-(4-Amino-3-(2-(2,2,2-trifluoroethoxy)quinolin-6-yl)-1H-pyrazolo[3,4-d]pyrimidin-1-yl)-2,2-dimethylpropan-1-ol] was tested. Which IC50 did it give?
Answer: Its IC50 is 17.2 nM.

Question: With `CC(C)Cn1nc(-c2ccc3cc(OC4CC4)ccc3c2)c2c(N)ncnc21` [Example 9, 3-(6-cyclopropoxynaphthalen-2-yl)-1-isobutyl-1H-pyrazolo[3,4-d]pyrimidin-4-amine] as the compound, how does the IC50 read?
Answer: Its IC50 is 6 nM.

Question: How did the IC50 turn out when `CN1CCC(Cn2nc(-c3ccc4cc(OC5COC5)ccc4c3)c3c(N)ncnc32)CC1` [Example 12, 1-((1-Methylpiperidin-4-yl)methyl)-3-(6-(oxetan-3-yloxy)naphthalen-2-yl)-1H-pyrazolo[3,4-d]pyrimidin-4-amine] was run?
Answer: The IC50 was 10.7 nM.

Question: Which IC50 does the source give for `Nc1ncnc2c1c(-c1ccc3cc(OCC4CC4)ccc3c1)nn2CC1CCOCC1` [Example 29, 3-(6-(cyclopropylmethoxy)naphthalen-2-yl)-1-((tetrahydro-2H-pyran-4-yl)methyl)-1H-pyrazolo[3,4-d]pyrimidin-4-amine] here?
Answer: Its IC50 is 4.8 nM.

Question: `Nc1ncnc2c1c(-c1ccc3cc(OC4CCC4)ccc3c1)nn2CC1CCOCC1` [Example 30, 3-(6-cyclobutoxynaphthalen-2-yl)-1-((tetrahydro-2H-pyran-4-yl)methyl)-1H-pyrazolo[3,4-d]pyrimidin-4-amine] was tested. Which IC50 did it give?
Answer: The IC50 was 2.6 nM.

Question: Which IC50 does the source give for `Nc1ncnc2c1c(-c1ccc3cc(OC4COC4)ccc3c1)nn2CC1CCOCC1` [Example 31, 3-(6-(oxetan-3-yloxy)naphthalen-2-yl)-1-((tetrahydro-2H-pyran-4-yl)methyl)-1H-pyrazolo[3,4-d]pyrimidin-4-amine] here?
Answer: Its IC50 is 35.8 nM.

Question: For `CCOc1ccc2cc(-c3nn(CC(C)(C)CO)c4ncnc(N)c34)ccc2c1` [Example 32, 3-(4-amino-3-(6-ethoxynaphthalen-2-yl)-1H-pyrazolo[3,4-d]pyrimidin-1-yl)-2,2-dimethylpropan-1-ol], which IC50 is on record?
Answer: Its IC50 is 1.2 nM.

Question: With `CC(C)Cn1nc(-c2ccc3cc(OCCO)ccc3c2)c2c(N)ncnc21` [Example 34, 2-(6-(4-amino-1-isobutyl-1H-pyrazolo[3,4-d]pyrimidin-3-yl)naphthalen-2-yloxy)ethanol] as the compound, how does the IC50 read?
Answer: Its IC50 is 5.8 nM.

Question: How did the IC50 turn out when `CC(C)Cn1nc(-c2ccc3cc(OC4COC4)ccc3c2)c2c(N)ncnc21` [Example 35, 1-isobutyl-3-(6-(oxetan-3-yloxy)naphthalen-2-yl)-1H-pyrazolo[3,4-d]pyrimidin-4-amine] was run?
Answer: Its IC50 is 4 nM.

Question: For `COCCOc1ccc2cc(-c3nn(CC(C)C)c4ncnc(N)c34)ccc2c1` [Example 36, 1-isobutyl-3-(6-(2-methoxyethoxy)naphthalen-2-yl)-1H-pyrazolo[3,4-d]pyrimidin-4-amine], which IC50 is on record?
Answer: The IC50 was 1.7 nM.

Question: For `CCOc1ccc2cc(-c3nn(CC(C)(C)CO)c4ncnc(N)c34)ccc2n1` [Example 37, 3-(4-amino-3-(2-ethoxyquinolin-6-yl)-1H-pyrazolo[3,4-d]pyrimidin-1-yl)-2,2-dimethylpropan-1-ol], which IC50 is on record?
Answer: Its IC50 is 1.7 nM.

Question: Which IC50 does the source give for `COCCOc1ccc2cc(-c3nn(CC(C)(C)C)c4ncnc(N)c34)ccc2n1` [Example 38, 3-(2-(2-methoxyethoxy)quinolin-6-yl)-1-neopentyl-1H-pyrazolo[3,4-d]pyrimidin-4-amine] here?
Answer: Its IC50 is 3.8 nM.

Question: Which IC50 does the source give for `Nc1ncnc2c1c(-c1ccc3nc(OC4CC4)ccc3c1)nn2CC1CCNCC1` [Example 39, 3-(2-cyclopropoxyquinolin-6-yl)-1-(piperidin-4-ylmethyl)-1H-pyrazolo[3,4-d]pyrimidin-4-amine] here?
Answer: The IC50 was 1 nM.

Question: For `Nc1ncnc2c1c(-c1ccc3nc(OC4CC4)ccc3c1)nn2CC1CNC1` [Example 40, 1-(azetidin-3-ylmethyl)-3-(2-cyclopropoxyquinolin-6-yl)-1H-pyrazolo[3,4-d]pyrimidin-4-amine], which IC50 is on record?
Answer: The IC50 was 2.3 nM.

Question: How did the IC50 turn out when `CN1CC(Cn2nc(-c3ccc4nc(OC5CC5)ccc4c3)c3c(N)ncnc32)C1` [Example 41, 3-(2-cyclopropoxyquinolin-6-yl)-1-((1-methylazetidin-3-yl)methyl)-1H-pyrazolo[3,4-d]pyrimidin-4-amine] was run?
Answer: The IC50 was 2.8 nM.

Question: How did the IC50 turn out when `COCCOc1ccc2cc(-c3nn(CC4CCN(C)CC4)c4ncnc(N)c34)ccc2n1` [Example 42, 3-(2-(2-methoxyethoxy)quinolin-6-yl)-1-((1-methylpiperidin-4-yl)methyl)-1H-pyrazolo[3,4-d]pyrimidin-4-amine] was run?
Answer: Its IC50 is 8 nM.

Question: Which IC50 does the source give for `Nc1ncnc2c1c(-c1ccc3nc(OCC(F)(F)F)ccc3c1)nn2CC1CCNCC1` [Example 44, 1-(piperidin-4-ylmethyl)-3-(2-(2,2,2-trifluoroethoxy)quinolin-6-yl)-1H-pyrazolo[3,4-d]pyrimidin-4-amine] here?
Answer: Its IC50 is 1.4 nM.

Question: With `CC(C)(COCCO)Cn1nc(-c2ccc3nc(OC4CC4)ccc3c2)c2c(N)ncnc21` [Example 45, 2-(3-(4-amino-3-(2-cyclopropoxyquinolin-6-yl)-1H-pyrazolo[3,4-d]pyrimidin-1-yl)-2,2-dimethylpropoxy)ethanol] as the compound, how does the IC50 read?
Answer: The IC50 was 1200 nM.

Question: How did the IC50 turn out when `CC(C)(O)Cn1nc(-c2ccc3nc(OCC(F)(F)F)ccc3c2)c2c(N)ncnc21` [Example 46, 1-(4-amino-3-(2-(2,2,2-trifluoroethoxy)quinolin-6-yl)-1H-pyrazolo[3,4-d]pyrimidin-1-yl)-2-methylpropan-2-ol] was run?
Answer: Its IC50 is 18.3 nM.

Question: For `CCOc1ccc2ccc(-c3nn(CC(C)C)c4ncnc(N)c34)cc2c1` [Example 47, 3-(7-ethoxynaphthalen-2-yl)-1-isobutyl-1H-pyrazolo[3,4-d]pyrimidin-4-amine], which IC50 is on record?
Answer: Its IC50 is 10.8 nM.

Question: Which IC50 does the source give for `CCOc1ccc2ccc(-c3nn(CC4CCNCC4)c4ncnc(N)c34)cc2c1` [Example 48, 3-(7-ethoxynaphthalen-2-yl)-1-(piperidin-4-ylmethyl)-1H-pyrazolo[3,4-d]pyrimidin-4-amine] here?
Answer: The IC50 was 19.1 nM.

Question: How did the IC50 turn out when `CCOc1ccc2cc(-c3nn(CC4(C)COC4)c4ncnc(N)c34)ccc2c1` [Example 49, 3-(6-ethoxynaphthalen-2-yl)-1-((3-methyloxetan-3-yl)methyl)-1H-pyrazolo[3,4-d]pyrimidin-4-amine] was run?
Answer: Its IC50 is 2.9 nM.

Question: Which IC50 does the source give for `CCOc1ccc2cc(-c3nn(CC(=O)N4CCOCC4)c4ncnc(N)c34)ccc2c1` [Example 50, 2-(4-amino-3-(6-ethoxynaphthalen-2-yl)-1H-pyrazolo[3,4-d]pyrimidin-1-yl)-1-morpholinoethanone] here?
Answer: The IC50 was 42.9 nM.

Question: With `Nc1ncnc2c1c(-c1ccc3cc(OC4CC4)ccc3c1)nn2CC(=O)N1CCOCC1` [Example 51, 2-(4-amino-3-(6-cyclopropoxynaphthalen-2-yl)-1H-pyrazolo[3,4-d]pyrimidin-1-yl)-1-morpholinoethanone] as the compound, how does the IC50 read?
Answer: The IC50 was 15.8 nM.

Question: Which IC50 does the source give for `COCc1ccc2cc(-c3nn(CC(O)(C(F)(F)F)C(F)(F)F)c4ncnc(N)c34)ccc2c1` [Example 52, 2-((4-amino-3-(6-(methoxymethyl)naphthalen-2-yl)-1H-pyrazolo[3,4-d]pyrimidin-1-yl)methyl)-1,1,1,3,3,3-hexafluoropropan-2-ol] here?
Answer: Its IC50 is 84.2 nM.

Question: Which IC50 does the source give for `Nc1ncnc2c1c(-c1ccc3nc(OC4CC4)ccc3c1)nn2CC(O)(C(F)(F)F)C(F)(F)F` [Example 53, 2-((4-amino-3-(2-cyclopropoxyquinolin-6-yl)-1H-pyrazolo[3,4-d]pyrimidin-1-yl)methyl)-1,1,1,3,3,3-hexafluoropropan-2-ol] here?
Answer: The IC50 was 47.3 nM.

Question: With `CC(C)(O)Cn1cc(-c2ccc3nc(OC4CC4)ccc3c2)c2c(N)ncnc21` [Example 55, 1-(4-amino-5-(2-cyclopropoxyquinolin-6-yl)-7H-pyrrolo[2,3-d]pyrimidin-7-yl)-2-methylpropan-2-ol] as the compound, how does the IC50 read?
Answer: The IC50 was 3.2 nM.

Question: For `CC(C)(O)C(C)(C)Cn1nc(-c2ccc3nc(OC4CC4)ccc3c2)c2c(N)ncnc21` [Example 56, 4-(4-amino-3-(2-cyclopropoxyquinolin-6-yl)-1H-pyrazolo[3,4-d]pyrimidin-1-yl)-2,3,3-trimethylbutan-2-ol], which IC50 is on record?
Answer: Its IC50 is 70.8 nM.

Question: Which IC50 does the source give for `Nc1ncnc2c1c(-c1ccc3nc(OC4CC4)ccc3c1)nn2CC1(O)CCC1` [Example 57, 1-((4-amino-3-(2-cyclopropoxyquinolin-6-yl)-1H-pyrazolo[3,4-d]pyrimidin-1-yl)methyl)cyclobutanol] here?
Answer: The IC50 was 6.1 nM.

Question: With `CC(C)(O)Cn1cc(-c2ccc3cc(OC4CC4)ccc3c2)c2c(N)ncnc21` [Example 58, 1-(4-amino-5-(6-cyclopropoxynaphthalen-2-yl)-7H-pyrrolo[2,3-d]pyrimidin-7-yl)-2-methylpropan-2-ol] as the compound, how does the IC50 read?
Answer: The IC50 was 9.1 nM.

Question: Which IC50 does the source give for `Nc1ncnc2c1c(-c1ccc3cc(OC4CC4)ccc3c1)nn2CC1(O)CCC1` [Example 59, 1-((4-amino-3-(6-cyclopropoxynaphthalen-2-yl)-1H-pyrazolo[3,4-d]pyrimidin-1-yl)methyl)cyclobutanol] here?
Answer: The IC50 was 8.6 nM.

Question: With `Nc1ncnc2c1c(-c1ccc3nc(OC4CC4)ccc3c1)nn2CC1(O)CCCC1` [Example 60, 1-((4-amino-3-(2-cyclopropoxyquinolin-6-yl)-1H-pyrazolo[3,4-d]pyrimidin-1-yl)methyl)cyclopentanol] as the compound, how does the IC50 read?
Answer: Its IC50 is 12.7 nM.

Question: With `Nc1ncnc2c1c(-c1ccc3cc(OC4CC4)ccc3c1)nn2CC1(O)CCCC1` [Example 61, 1-((4-amino-3-(6-cyclopropoxynaphthalen-2-yl)-1H-pyrazolo[3,4-d]pyrimidin-1-yl)methyl)cyclopentanol] as the compound, how does the IC50 read?
Answer: Its IC50 is 13 nM.

Question: With `Nc1ncnc2c1c(-c1ccc3nc(OC4CC4)ccc3c1)nn2CC1(O)CCOCC1` [Example 62, 4-((4-amino-3-(2-cyclopropoxyquinolin-6-yl)-1H-pyrazolo[3,4-d]pyrimidin-1-yl)methyl)-tetrahydro-2H-pyran-4-ol] as the compound, how does the IC50 read?
Answer: Its IC50 is 19.2 nM.

Question: With `Nc1ncnc2c1c(-c1ccc3cc(OC4CC4)ccc3c1)nn2CC1(O)CCOCC1` [Example 63, 4-((4-amino-3-(6-cyclopropoxynaphthalen-2-yl)-1H-pyrazolo[3,4-d]pyrimidin-1-yl)methyl)-tetrahydro-2H-pyran-4-ol] as the compound, how does the IC50 read?
Answer: The IC50 was 12.8 nM.

Question: With `Nc1ncnc2c1c(-c1ccc3nc(OC4CC4)ccc3c1)nn2CC1(CO)COC1` [Example 64, (3-((4-amino-3-(2-cyclopropoxyquinolin-6-yl)-1H-pyrazolo[3,4-d]pyrimidin-1-yl)methyl)oxetan-3-yl)methanol] as the compound, how does the IC50 read?
Answer: Its IC50 is 3.6 nM.

Question: How did the IC50 turn out when `Nc1ncnc2c1c(-c1ccc3cc(OC4CC4)ccc3c1)nn2CC1(CO)COC1` [Example 65, (3-((4-amino-3-(6-cyclopropoxynaphthalen-2-yl)-1H-pyrazolo[3,4-d]pyrimidin-1-yl)methyl)oxetan-3-yl)methanol] was run?
Answer: Its IC50 is 2.9 nM.
